In ChEMBL document CHEMBL1152068, “A study of 3-amino-N-hydroxypropanesulfonamide derivatives as potential GABAB agonists and their fragmentation to 3-aminopropanesulfinic acid” (Bioorg Med Chem Lett, 1996):

Tests used:
GABA B receptor = GABA B receptor (Rattus norvegicus, UniProt O88871+Q9Z0U4); assay: Binding affinity against Gamma-aminobutyric acid type B receptor in rat brain synaptosomes after 30 minutes; assay type: subcellular
[1] = target: GABA-A receptor; anion channel; assay: Binding affinity against Gamma-aminobutyric acid A receptor in rat brain synaptosomes after 30 minutes; assay type: subcellular
Cavia porcellus [2] = assay: Inhibitory effect on bronchospasm caused by vagal nerve stimulation (EFS) in anesthetized, mechanically ventilated guinea-pigs at 3 mg/kg after 10 minutes; assay type: functional; details: Bronchiole
Cavia porcellus [3] = organism: Cavia porcellus; assay: Compound was tested for its effect on EFS stimulated neuronal cholinergic contractions of guinea pig tracheal rings after 10 minutes; assay type: functional; details: Trachea
[4] = test system: GABA-A receptor; anion channel; assay: Binding affinity against Gamma-aminobutyric acid A receptor in rat brain synaptosomes after 30 minutes (inactive); assay type: subcellular

Chain of GABA B receptor (Q9Z0U4 whole entry): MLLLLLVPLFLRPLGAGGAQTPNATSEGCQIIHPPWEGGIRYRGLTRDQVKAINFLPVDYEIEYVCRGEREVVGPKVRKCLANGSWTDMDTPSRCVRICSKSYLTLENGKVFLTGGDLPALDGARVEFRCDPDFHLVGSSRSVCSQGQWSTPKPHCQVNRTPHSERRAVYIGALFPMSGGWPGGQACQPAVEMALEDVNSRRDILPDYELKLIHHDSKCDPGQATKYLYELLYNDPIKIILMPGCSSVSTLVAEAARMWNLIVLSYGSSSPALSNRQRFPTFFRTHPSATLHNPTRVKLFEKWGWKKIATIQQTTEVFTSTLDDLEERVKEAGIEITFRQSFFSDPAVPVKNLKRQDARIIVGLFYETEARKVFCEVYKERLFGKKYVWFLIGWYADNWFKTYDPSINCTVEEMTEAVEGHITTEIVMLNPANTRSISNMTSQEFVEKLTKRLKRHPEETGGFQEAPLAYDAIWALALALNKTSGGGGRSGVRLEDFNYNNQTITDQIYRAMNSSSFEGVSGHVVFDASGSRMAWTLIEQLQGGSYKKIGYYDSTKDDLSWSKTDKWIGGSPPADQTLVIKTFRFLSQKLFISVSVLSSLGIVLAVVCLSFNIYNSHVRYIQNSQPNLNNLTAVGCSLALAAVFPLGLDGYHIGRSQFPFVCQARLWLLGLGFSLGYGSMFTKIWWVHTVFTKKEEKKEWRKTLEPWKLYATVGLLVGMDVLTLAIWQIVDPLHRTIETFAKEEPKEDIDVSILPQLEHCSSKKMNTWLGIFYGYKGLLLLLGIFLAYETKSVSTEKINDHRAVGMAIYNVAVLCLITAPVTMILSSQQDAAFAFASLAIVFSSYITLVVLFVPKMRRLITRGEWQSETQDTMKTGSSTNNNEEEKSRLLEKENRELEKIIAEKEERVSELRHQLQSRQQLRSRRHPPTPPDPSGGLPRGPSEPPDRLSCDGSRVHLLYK
Chain of GABA B receptor (O88871 whole entry): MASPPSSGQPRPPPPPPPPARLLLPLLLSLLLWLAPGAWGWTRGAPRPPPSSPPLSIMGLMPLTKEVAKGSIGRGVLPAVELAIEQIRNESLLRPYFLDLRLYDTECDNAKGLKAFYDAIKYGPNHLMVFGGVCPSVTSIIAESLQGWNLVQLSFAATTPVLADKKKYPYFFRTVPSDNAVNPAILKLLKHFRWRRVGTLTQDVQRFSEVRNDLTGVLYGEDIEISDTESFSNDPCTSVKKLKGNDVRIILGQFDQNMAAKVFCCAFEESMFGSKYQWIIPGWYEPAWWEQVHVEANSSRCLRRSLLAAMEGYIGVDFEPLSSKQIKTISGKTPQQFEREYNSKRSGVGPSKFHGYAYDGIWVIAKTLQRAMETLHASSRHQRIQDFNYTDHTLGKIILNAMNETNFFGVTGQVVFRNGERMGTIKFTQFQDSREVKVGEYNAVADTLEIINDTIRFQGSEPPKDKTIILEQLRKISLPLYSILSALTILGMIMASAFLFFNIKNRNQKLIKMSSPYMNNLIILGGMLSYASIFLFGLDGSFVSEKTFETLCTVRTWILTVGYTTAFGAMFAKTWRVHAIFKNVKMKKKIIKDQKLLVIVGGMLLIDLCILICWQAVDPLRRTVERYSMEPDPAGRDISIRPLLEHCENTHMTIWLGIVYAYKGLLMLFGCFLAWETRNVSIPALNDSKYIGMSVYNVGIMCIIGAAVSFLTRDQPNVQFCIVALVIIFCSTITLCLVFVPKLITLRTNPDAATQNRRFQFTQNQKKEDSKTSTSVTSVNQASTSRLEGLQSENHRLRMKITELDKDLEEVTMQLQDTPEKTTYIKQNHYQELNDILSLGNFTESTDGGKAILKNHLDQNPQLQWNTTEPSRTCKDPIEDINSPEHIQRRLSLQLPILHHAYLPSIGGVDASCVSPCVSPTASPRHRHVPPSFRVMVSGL

Structure (SMILES) | IC50 (GABA B receptor) | IC50 [1] | inhibition in vivo at 3 mg/kg (Cavia porcellus [2]) | IC50 (Cavia porcellus [3]) | IC50 [4]
NCCCS(=O)(=O)N(O)CC(=O)O | 80 nM | 620 nM |  |  | 
NCCCS(=O)(=O)NO | 280 nM | 2000 nM | 0% | 16000 nM | 
NCCCS(=O)(=O)N(O)Cc1ccccc1 | 40 nM | 230 nM | 17% | 4200 nM | 
CN(O)S(=O)(=O)CCCN | 40 nM | 280 nM | 17% | 2600 nM | 
NCC(CC(=O)O)c1ccc(Cl)cc1 (racemic) [BACLOFEN] |  |  | 75% | 6400 nM | Not Active
NCCCS(=O)O [HOMOHYPOTAURINE] | 60 nM | 470 nM | 25% | 1700 nM | 
NCCCS(=O)(=O)O [TRAMIPROSATE] | 30000 nM | 300 nM |  |  | 
